Here are results for two compounds from PMC6886544.

One data set concerns the target FGFR2 (Homo sapiens, UniProt P21802). Nature of the data set: SelectScreen kinase profiling, FGFR2. Type of data set: biochemical. The note with it: mean ± SD of one measurement in duplicates. The method, then:
Kinase profiling of compound 17a at a concentration of 1 µM generated with the SelectScreen® Profiling Service from Life Technologies.
Figure S2. Kinase profiling of compound 17a, Illustration as waterfall plot. 9 Kinases harboring a Cysteine isostructural to Cys797 in EGFR are highlighted
Kinase % inhibition Kinase % inhibition […]
aValues are the mean ± SD of one measurement in duplicates; bKinases harboring a Cysteine isostructural to Cys797 […]
(1 picture or pasted object on this page, not shown here)

In data set [1] the test system is EGFR and downstream cascade phosphorylation in H1975 cells. Nature of the data set: Western blot analysis in H1975 cells. The note with it: 1 h inhibitor then EGF stimulation. Type of data set: cell-based. The method, then:
and incubated at 37 °C and 5% CO2. On day 2 cells were starved over night with media containing 0.5% FBS to be incubated on day 3 for 1 h with EGFR inhibitors following an additional 30 min of EGF stimulation at 50 ng/mL. The media was discarded and cells were washed once with DPBS
1x. Using 100 μL per well of lysis buffer, cells were then scraped off and lysed while rotating (Stuart Scientific, Staffordshire, UK) for 1 h at 4 °C. […] Supernatant was transferred into new tube and protein concentrations were determined with the Bio-Rad Protein Assay (Bio-Rad Laboratories, Hercules, CA). […]
captured and quantified using a FUJI LAS3000 system with Science Lab 2001 ImageGauge 4.0 software (Fujifilm Medial Systems, Stamford CT, USA). […]
glycerol, 1 mM TCEP, pH 8) on ice for 1 h. We analyzed the aliquots by ESI-MS using an Thermo Fisher Scientific Dionex UltiMate 3000 HPLC system connected to a Thermo Fisher Scientific Velos Pro (2d ion trap). Therefore, 5 μL of sample was injected and separated using a Vydac 214TP C4 5 μm column (150 mm x 2.1 mm) starting at 20% of solvent B for 5 minutes followed by a gradient up to 90% of solvent B over 14 min with a flow rate of 210 μL/min with 0.1% TFA in water as solvent A and 0.1% TFA in MeCN as solvent B. A mass range of 700 to 2000 m/z was scanned and raw data was deconvoluted and analyzed with MagTran software (Z.Q. Zhang, A.G. […]
(In western blotting, separated proteins are transferred to a membrane and probed.)

A short description of data set [2]: In vivo pharmacokinetics in mice. As for the experimental part: In vivo pharmacokinetics.
To determine the pharmacokinetics of 19h, totally 36 male RjOrl:SWISS (CD1) mice, age 8−10 weeks, body weight (bw) between 29 and 31 g, were purchased from Janvier, Saint-Berthevin Cedex, France. Mice were fed ad libitum with Allein-Futter für Ratten-/Mäusehaltung from Sniff Special Diets GmbH, Germany. They had free access to water and were kept in a 12 h day/night rhythm. All experiments were approved by the local authorities. Pharmacokinetics were studied for the oral (PO), intraperitoneal (IP), and intravenous (IV) route of administration. For the oral and […]
intraperitoneal routes, a stock solution of 2 mg/mL of 19h in a solution consisting of 10% of DMSO and to 90% of an aqueous solution of 30% 2-hydroxypropyl-β-cyclodextrin was prepared. To reach doses of 20 mg/kg bw, 300 μL were administered per 30 g of mouse bw. For the intravenous route of administration, a 2 mg/mL DMSO solution was prepared and 30 μL were applied to a 30 g mouse to reach a concentration of 2 mg/kg bw. Mice were sacrificed 5, 15, 45, and 135 min after administration of the test compound, and approximately 100 μL of blood was taken from the left heart chamber. Three mice were analyzed per time point and route of administration (PO, IP and IV), respectively. Immediately after sampling, blood was centrifuged at 16200g for 10 min at 4 °C and plasma was stored at -80 °C until LC/MS analysis of 19h. Prior to LC-MS/MS analysis, plasma proteins were precipitated with acetonitrile containing an internal standard, and samples were filtered. A calibration curve was obtained from spiked blank plasma samples. 19h was measured using a Shimadzu UPLC system connected to a QTrap 4000 hybrid triple quadrupole/linear ion trap mass spectrometer (AB Sciex). The regression equation of the calibration curve was used to calculate plasma concentrations. Pharmacokinetic parameters were calculated using the PKSolver software2.

Setting [3] is: male, RjOrl:SWISS (CD1), mouse, plasma, IP 20 mg kg-1.
Where [4] appears, read: male, RjOrl:SWISS (CD1), mouse, plasma, IP 20 mg kg^–1.
The mark [5] stands for this setting: male, RjOrl:SWISS (CD1), mouse, plasma, IV 2 mg kg-1.
The mark [6] stands for this setting: male, RjOrl:SWISS (CD1), mouse, plasma, PO 20 mg kg-1.

SMILES strings stand for the structures.

Chain of FGFR2 (P21802 22-821): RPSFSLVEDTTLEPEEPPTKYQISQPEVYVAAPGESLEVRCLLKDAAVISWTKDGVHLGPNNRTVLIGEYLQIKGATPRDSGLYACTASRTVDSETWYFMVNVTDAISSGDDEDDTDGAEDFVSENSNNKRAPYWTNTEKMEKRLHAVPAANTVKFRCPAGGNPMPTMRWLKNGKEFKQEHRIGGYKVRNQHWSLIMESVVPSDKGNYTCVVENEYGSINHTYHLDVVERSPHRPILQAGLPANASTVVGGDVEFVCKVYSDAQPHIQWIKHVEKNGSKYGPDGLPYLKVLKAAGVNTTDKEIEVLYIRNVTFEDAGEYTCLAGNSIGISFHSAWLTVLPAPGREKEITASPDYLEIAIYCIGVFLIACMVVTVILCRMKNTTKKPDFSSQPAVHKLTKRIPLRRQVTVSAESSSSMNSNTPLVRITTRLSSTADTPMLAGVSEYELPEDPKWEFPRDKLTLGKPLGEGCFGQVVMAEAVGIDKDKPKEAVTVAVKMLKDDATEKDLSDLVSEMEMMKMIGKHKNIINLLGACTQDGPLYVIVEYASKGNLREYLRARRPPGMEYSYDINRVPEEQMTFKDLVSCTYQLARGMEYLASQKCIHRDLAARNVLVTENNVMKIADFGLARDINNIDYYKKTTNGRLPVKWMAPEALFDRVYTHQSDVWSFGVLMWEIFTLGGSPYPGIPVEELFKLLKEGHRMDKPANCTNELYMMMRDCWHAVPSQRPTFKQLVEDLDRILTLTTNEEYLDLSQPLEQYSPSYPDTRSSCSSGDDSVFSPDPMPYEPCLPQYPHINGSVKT

Usually inhibition stands for the percentage by which the read-out fell short of the control. Read a low inhibition as a response near the control. The compound `C=CC(=O)Nc1cccc(-c2c(-c3ccc(CN4CCN(C)CC4)cc3)[nH]c3ncnc(OC)c23)c1` [Compound 17a] showed an inhibition at 1 µM against FGFR2 of 76 ± 1%. For the same compound, the “concentration at which phosphorylation of EGFR and downstream proteins was reduced/inhibited” value in data set [1] is “around 100 nM”.
Broadly, the AUC(0-t) is the area under the concentration-time curve up to a stated or last time point. High values mean high exposure, low ones low exposure. A word on the Cmax: it is the highest concentration seen after dosing. For orientation: AUC means the area under the concentration-time curve, a measure of exposure. One may read the clearance as the volume of plasma or blood freed of the substance per unit of time. High values mean a high capacity for elimination, low ones a low capacity for elimination. Usually half-life stands for how long it takes for the measured level to halve. A low value points to rapid decline. Take `C=CC(=O)Nc1cccc(-c2c(-c3ccc(N4CCN(C)CC4)cc3)[nH]c3ncnc(OCC(C)C)c23)c1` [Compound 19h]: the F0-t in data set [2] (IP 20 mg kg-1) is given as 258%; in data set [2] (PO 20 mg kg-1), 9%. This compound also displayed a t1/2 in data set [2] (IP 20 mg kg-1) of 1.2 h. In data set [2] (IP 20 mg kg^–1), the “Cmax, free” value was determined as 0.012 µM. The “time blood plasma concentration maintained above in vitro EC50 in H1975 cells” value in data set [2] (after both IP and PO) is listed as “more than two hours”. For the same compound, the AUC(0-t) in data set [2] (setting [3]) is 2870 ng·h/mL; in data set [2] (setting [5]), 111 ng·h/mL; in data set [2] (setting [6]), 101 ng·h/mL. Also, the peak concentration (Cmax) in data set [2] (setting [3]) was 1770 ng/mL; in data set [2] (setting [4]) it was 3.5 µM; in data set [2] (setting [6]) it was 56 ng/mL. This compound also returned an exposure (AUC) in data set [2] (setting [4]) of 8.6 ng·h/mL. In addition, the C0 in data set [2] (setting [5]) turned out to be 258 ng/mL. In data set [2] (setting [5]), this compound showed a clearance of 250 mL/min/kg. Moreover, the Vd in data set [2] (male, RjOrl:SWISS (CD1), mouse, plasma, IV 2 mg kg-1, read-out: Vss) was found to be 16 L/kg. Moreover, the half-life in data set [2] (male, RjOrl:SWISS (CD1), mouse, plasma, ip, 20 mg/kg, IP 20 mg kg-1) was 72.6 min; in data set [2] (male, RjOrl:SWISS (CD1), mouse, plasma, iv, 2 mg/kg, IV 2 mg kg-1), 53.4 min.
